Test results reported in patent publication US10407395B2, “Benzimidazole compound and medical use thereof” (Sumitomo Dainippon Pharma Co., Ltd., priority 2015, dated 2019).

These compounds were tested against human SCN9A (Nav 1.7) (Homo sapiens, UniProt Q15858) (assay: Measurement of Na ion current (Nav 1.7) by automated patch clamp assay in cells stably-expressing human SCN9A). Conditions: compound concentration 10 μmol/L; holding potential inactivating 50% Nav 1.7 channel (around −60 mV); read-out: Inhibitory rate (%) of Na ion current.
Type: cell-based
Method: Measurement of Na Ion Current in Voltage-Dependent Na Channel Gene Expressed Cell Nav 1.7 current was measured by automated patch clamp assay using cells stably-expressing human SCN9A. Cells Stably-expressing Human SCN9A Tetracycline-induced cells stably-expressing SCN9A were obtained from ChanTest Corporation. […] Next day, the Na ion current was measured by automated patch clamp assay. Electrophysiologic Measurement of Na Ion Current The Na ion current was measured by automated patch clamp assay using the following extracellular solution and intracellular solution. […] The control of the stimulating pulse and the data acquisition were carried out using EPC10 amplifier and Patch Master Software (HEKA). Data were sampled at 10 kHz, and low-pass filtered at 3 kHz. All the measurements were carried out at room temperature. […] The inhibitory rate of the Na ion current by the test compounds was calculated according to the following calculating formula with the peak current value generated by the depolarizing pulse. […] The inhibitory rate of Na ion current by each Example Compound was evaluated.

Chain of human SCN9A (Nav 1.7) (Q15858 whole entry): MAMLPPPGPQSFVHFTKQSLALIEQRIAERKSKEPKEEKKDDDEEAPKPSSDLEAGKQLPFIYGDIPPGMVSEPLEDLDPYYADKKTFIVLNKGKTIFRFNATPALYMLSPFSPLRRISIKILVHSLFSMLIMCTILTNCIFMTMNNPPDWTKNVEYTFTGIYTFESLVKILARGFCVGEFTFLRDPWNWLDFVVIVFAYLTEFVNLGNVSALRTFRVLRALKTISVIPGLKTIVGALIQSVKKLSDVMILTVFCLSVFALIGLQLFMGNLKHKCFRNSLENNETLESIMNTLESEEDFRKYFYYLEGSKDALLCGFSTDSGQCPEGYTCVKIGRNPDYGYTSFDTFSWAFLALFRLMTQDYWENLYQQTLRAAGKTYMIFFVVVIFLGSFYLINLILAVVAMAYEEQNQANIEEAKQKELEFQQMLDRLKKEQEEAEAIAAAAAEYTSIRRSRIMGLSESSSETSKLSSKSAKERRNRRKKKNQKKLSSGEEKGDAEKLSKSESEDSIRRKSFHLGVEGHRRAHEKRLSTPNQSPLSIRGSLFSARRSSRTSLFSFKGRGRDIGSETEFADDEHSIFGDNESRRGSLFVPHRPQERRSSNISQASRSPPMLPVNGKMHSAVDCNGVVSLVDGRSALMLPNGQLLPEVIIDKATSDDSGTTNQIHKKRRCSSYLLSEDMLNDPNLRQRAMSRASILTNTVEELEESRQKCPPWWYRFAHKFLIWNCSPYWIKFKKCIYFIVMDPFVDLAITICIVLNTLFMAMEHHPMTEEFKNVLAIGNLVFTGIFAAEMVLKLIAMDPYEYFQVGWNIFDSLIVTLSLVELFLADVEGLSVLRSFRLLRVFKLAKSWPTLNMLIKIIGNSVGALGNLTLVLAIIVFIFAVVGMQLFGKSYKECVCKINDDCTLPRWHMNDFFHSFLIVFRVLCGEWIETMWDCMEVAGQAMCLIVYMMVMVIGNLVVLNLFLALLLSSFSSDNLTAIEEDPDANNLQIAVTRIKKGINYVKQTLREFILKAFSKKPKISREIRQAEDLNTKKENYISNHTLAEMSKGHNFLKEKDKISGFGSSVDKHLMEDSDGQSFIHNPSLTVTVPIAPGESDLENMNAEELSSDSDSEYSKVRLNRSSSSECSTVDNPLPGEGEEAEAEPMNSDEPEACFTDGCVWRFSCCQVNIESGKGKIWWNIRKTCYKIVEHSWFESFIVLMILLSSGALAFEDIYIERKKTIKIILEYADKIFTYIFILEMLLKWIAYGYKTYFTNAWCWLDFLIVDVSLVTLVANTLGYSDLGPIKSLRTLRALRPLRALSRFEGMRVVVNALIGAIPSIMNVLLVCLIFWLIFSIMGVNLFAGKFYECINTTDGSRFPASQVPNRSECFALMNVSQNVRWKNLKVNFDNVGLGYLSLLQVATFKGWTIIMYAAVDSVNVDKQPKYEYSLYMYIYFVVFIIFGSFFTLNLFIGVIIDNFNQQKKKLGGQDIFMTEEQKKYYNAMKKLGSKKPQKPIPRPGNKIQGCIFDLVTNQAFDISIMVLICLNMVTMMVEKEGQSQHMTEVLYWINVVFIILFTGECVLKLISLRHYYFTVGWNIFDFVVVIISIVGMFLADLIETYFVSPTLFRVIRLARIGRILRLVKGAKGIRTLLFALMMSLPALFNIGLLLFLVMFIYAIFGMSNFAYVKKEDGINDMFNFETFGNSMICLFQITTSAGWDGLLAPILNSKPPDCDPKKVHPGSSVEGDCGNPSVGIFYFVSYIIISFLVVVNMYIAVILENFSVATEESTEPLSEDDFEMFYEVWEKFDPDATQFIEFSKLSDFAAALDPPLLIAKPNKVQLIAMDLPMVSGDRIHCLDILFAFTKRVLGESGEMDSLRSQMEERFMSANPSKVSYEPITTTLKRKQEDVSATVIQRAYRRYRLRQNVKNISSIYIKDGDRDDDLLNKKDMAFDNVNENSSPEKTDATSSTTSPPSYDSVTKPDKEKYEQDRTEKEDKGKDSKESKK

Going from `COc1cc(-c2ccc3ncn(CC(C)(C)O)c3c2)cc(C(F)(F)F)c1` [Example 142] to `COc1cc(-c2ccc3ncn(CC4(O)COC4)c3c2)cc(C(F)(F)F)c1` [Example 163], the inhibition at 10 µM falls from 55% to 47%.

`CC(C)(O)Cn1cnc2ccc(-c3cc(F)cc(Cl)c3)cc21` [Example 143] and `OC1(Cn2cnc3ccc(-c4cc(F)cc(Cl)c4)cc32)COC1` [Example 165] are the same in inhibition at 10 µM: 35% for the first, 35% for the second.

First: CC(C)(O)Cn1cnc2ccc(-c3cnoc3)cc21 [Example 144]
Second: CC(C)(O)Cn1cnc2ccc(-c3ccoc3)cc21 [Example 146]
The inhibition at 10 µM of the first is higher: 19% for the first, 17% for the second.

`CC(C)(O)Cn1cnc2ccc(-c3ccc4ncccc4c3)cc21` [Example 145] and `CC(C)(O)Cn1cnc2ccc(-c3ccc4ocnc4c3)cc21` [Example 147] are the same in inhibition at 10 µM: 15% for the first, 15% for the second.

Compared with `OC1(Cn2cnc3ccc(-c4ccc(C(F)(F)F)cc4F)cc32)COC1` [Example 149], `OC1(Cn2cnc3ccc(-c4cc(C(F)(F)F)ccc4F)cc32)COC1` [Example 161] is higher in inhibition at 10 µM: 34% for the first, 49% for the second.

First: OC1(Cn2cnc3ccc(-c4ccc(C(F)(F)F)cc4Cl)cc32)COC1 [Example 150]
Second: OC1(Cn2cnc3ccc(-c4cc(C(F)(F)F)ccc4Cl)cc32)COC1 [Example 162]
The inhibition at 10 µM of the first is lower: 47% for the first, 63% for the second.

Compared with `OC1(Cn2cnc3ccc(-c4ccc(Cl)cc4C(F)(F)F)cc32)COC1` [Example 151], `OC1(Cn2cnc3ccc(-c4cccc(C(F)(F)F)c4Cl)cc32)COC1` [Example 168] is higher in inhibition at 10 µM: 44% for the first, 77% for the second.

Going from `OC1(Cn2cnc3ccc(-c4cccc(Cl)c4Cl)cc32)COC1` [Example 152] to `OC1(Cn2cnc3ccc(-c4cccc(Cl)c4F)cc32)COC1` [Example 153], the inhibition at 10 µM falls from 38% to 25%.

Going from `OC1(Cn2cnc3ccc(-c4ccc(F)c(Cl)c4)cc32)COC1` [Example 154] to `OC1(Cn2cnc3ccc(-c4ccc(Cl)c(Cl)c4)cc32)COC1` [Example 155], the inhibition at 10 µM rises from 52% to 55%.

First: OC1(Cn2cnc3ccc(-c4ccc(Cl)cc4Cl)cc32)COC1 [Example 156]
Second: OC1(Cn2cnc3ccc(-c4cc(Cl)ccc4Cl)cc32)COC1 [Example 157]
The inhibition at 10 µM of the first is higher: 54% for the first, 51% for the second.

Going from `OC1(Cn2cnc3ccc(-c4cc(Cl)cc(Cl)c4)cc32)COC1` [Example 158] to `Cc1cc(Cl)cc(-c2ccc3ncn(CC4(O)COC4)c3c2)c1` [Example 169], the inhibition at 10 µM falls from 53% to 46%.

Compared with `Cc1c(Cl)cccc1-c1ccc2ncn(CC3(O)COC3)c2c1` [Example 159], `COc1cccc(-c2ccc3ncn(CC4(O)COC4)c3c2)c1Cl` [Example 167] is higher in inhibition at 10 µM: 45% for the first, 71% for the second.

First: Cc1ccc(Cl)cc1-c1ccc2ncn(CC3(O)COC3)c2c1 [Example 160]
Second: Cc1c(-c2ccc3ncn(CC4(O)COC4)c3c2)cccc1C(F)(F)F [Example 166]
The inhibition at 10 µM of the first is lower: 25% for the first, 54% for the second.

Going from `Cc1cc(-c2ccc3ncn(CC4(O)COC4)c3c2)cc(C(F)(F)F)c1` [Example 164] to `CC(C)(O)CCn1cnc2ccc(-c3ccc(C(F)(F)F)cc3)cc21` [Example 172], the inhibition at 10 µM rises from 63% to 64%.

First: CC(C)(O)CCn1cnc2ccc(-c3ccc(F)cc3)cc21 [Example 170]
Second: CC(C)(O)CCn1cnc2ccc(-c3ccc(Cl)cc3)cc21 [Example 171]
The inhibition at 10 µM of the first is lower: 32% for the first, 60% for the second.

Going from `COc1cc(C(F)(F)F)ccc1-c1ccc2ncn(CCC(C)(C)O)c2c1` [Example 173, 4-{6-[2-methoxy-4-(trifluoromethyl)phenyl]-1H-benzimidazol-1-yl}-2-methylbutan-2-ol] to `CC(C)(O)CCn1cnc2ccc(-c3ccc(C(F)(F)F)cc3F)cc21` [Example 174], the inhibition at 10 µM falls from 80% to 66%.

`CC(C)(O)Cn1cnc2cc(-c3ccc(F)cc3)ccc21` [Example 175, 1-[5-(4-fluorophenyl)-1H-benzimidazol-1-yl]-2-methylpropan-2-ol] was tested, and the inhibition at 10 µM was 16%.
